The results in this text go back to patent US20250034170A1, “SMALL MOLECULE MODULATORS OF GLUCOCEREBROSIDASE ACTIVITY AND USES THEREOF” (Vanqua Bio, Inc., priority 2021, published 2025).

For the first assay, the target named is T1, GCase (Homo sapiens, UniProt P04062).
T1 construct: endogenous in cells; host or cells: HeLa cells
T1 sequence (P04062 40-536): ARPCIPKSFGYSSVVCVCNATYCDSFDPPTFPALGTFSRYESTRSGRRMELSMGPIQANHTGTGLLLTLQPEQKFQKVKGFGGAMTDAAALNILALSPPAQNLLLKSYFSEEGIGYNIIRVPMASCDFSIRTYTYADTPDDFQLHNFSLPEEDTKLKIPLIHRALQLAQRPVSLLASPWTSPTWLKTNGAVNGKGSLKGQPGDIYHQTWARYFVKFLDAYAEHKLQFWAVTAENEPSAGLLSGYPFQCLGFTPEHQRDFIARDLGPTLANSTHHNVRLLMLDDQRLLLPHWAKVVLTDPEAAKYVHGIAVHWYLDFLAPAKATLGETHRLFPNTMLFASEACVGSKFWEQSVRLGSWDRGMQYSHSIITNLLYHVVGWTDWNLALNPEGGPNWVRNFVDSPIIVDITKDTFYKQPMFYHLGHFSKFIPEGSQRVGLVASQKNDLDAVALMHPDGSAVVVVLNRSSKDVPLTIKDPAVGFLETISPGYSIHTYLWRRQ
The experiment in a line: activation of GCase in a live cell PFB assay in HELA cells. The settings on record: EC50 given as range classes. In kind it is cell-based. The procedure: Exemplary compounds were evaluated for activation of GCase in a live cell PFB assay in HELA cells (essentially as described in Ysselstein et al., “LRRK2 kinase activity regulates lysosomal glucocerebrosidase in neurons derived from Parkinson's disease patients” Nature Communications (2019) 10:5570). […] EC50 ranges: A: <10 μM; B: >10-50 μM; C: >50-100 μM; D: >100 μM.
The term EC50 denotes the concentration that produces a half-maximal response. A lower EC50 goes with higher potency in that assay. In turn, `O=C(c1ccc(Cl)cc1)N1CC2(CCN(c3cnc4cnn(CC(F)F)c4n3)C2)C1` [Cmpd 378] returned an EC50 above 100 µM. Take `COc1ccc(C(=O)N2CC3(CCN(c4cnc5cnn(CC(F)F)c5n4)C3)C2)cc1` [Cmpd 379]: the EC50 lay within 10 to 50 µM. `COc1cccc(C(=O)N2CC3(CCN(c4cnc5cnn(CC(F)F)c5n4)C3)C2)c1` [Cmpd 380]: the EC50 was below 10 µM.

In turn, `Cc1cccc(C(=O)N2CC3(CCN(c4cnc5cnn(CC(F)F)c5n4)C3)C2)c1` [Cmpd 381] registered an EC50 below 10 µM. Still for that read-out and setting: the same measure for `O=C(c1cccc(C(F)(F)F)c1)N1CC2(CCN(c3cnc4cnn(CC(F)F)c4n3)C2)C1` [Cmpd 382]: 10 to 50 µM; for `O=C(c1ccccc1Cl)N1CC2(CCN(c3cnc4cnn(CC(F)F)c4n3)C2)C1` [Cmpd 383]: below 10 µM. Same read-out and setting: the same measure for `Cc1ccccc1C(=O)N1CC2(CCN(c3cnc4cnn(CC(F)F)c4n3)C2)C1` [Cmpd 384]: below 10 µM; for `Cc1ccc(S(=O)(=O)N2CC3(CCN(c4cnc5cnn(CC(F)F)c5n4)C3)C2)cc1` [Cmpd 385]: 10 to 50 µM. The same measure, in the same setting: the same measure for `O=S(=O)(c1ccc(Cl)cc1)N1CC2(CCN(c3cnc4cnn(CC(F)F)c4n3)C2)C1` [Cmpd 386]: 10 to 50 µM; for `O=C(c1ccc(OC(F)F)cc1)N1CC2(CCN(c3cnc4cnn(CC(F)F)c4n3)C2)C1` [Cmpd 387]: 10 to 50 µM. In turn, `O=C(c1cccc(OC(F)(F)F)c1)N1CC2(CCN(c3cnc4cnn(CC(F)F)c4n3)C2)C1` [Cmpd 388] displayed an EC50 of 10 to 50 µM. The same measure, in the same setting: the same measure for `O=C(c1ccccc1OC(F)F)N1CC2(CCN(c3cnc4cnn(CC(F)F)c4n3)C2)C1` [Cmpd 389]: below 10 µM; for `O=C(c1ccccc1OC(F)(F)F)N1CC2(CCN(c3cnc4cnn(CC(F)F)c4n3)C2)C1` [Cmpd 390]: below 10 µM.

`COc1ccccc1C(=O)N1CC2(CCN(c3cnc4cnn(CC(F)F)c4n3)C2)C1` [Cmpd 391] displayed an EC50 below 10 µM. On the same count and under the same terms, the same measure for `O=C(c1ccccc1C(F)(F)F)N1CC2(CCN(c3cnc4cnn(CC(F)F)c4n3)C2)C1` [Cmpd 392]: below 10 µM; for `O=S(=O)(c1ccccc1Cl)N1CC2(CCN(c3cnc4cnn(CC(F)F)c4n3)C2)C1` [Cmpd 393]: 10 to 50 µM. Same read-out and setting: the same measure for `Cc1ccccc1S(=O)(=O)N1CC2(CCN(c3cnc4cnn(CC(F)F)c4n3)C2)C1` [Cmpd 394]: 10 to 50 µM; for `O=S(=O)(c1ccccc1F)N1CC2(CCN(c3cnc4cnn(CC(F)F)c4n3)C2)C1` [Cmpd 395]: below 10 µM; for `O=S(=O)(c1ccccc1C(F)(F)F)N1CC2(CCN(c3cnc4cnn(CC(F)F)c4n3)C2)C1` [Cmpd 396]: 10 to 50 µM.

Turning to `O=C1CC2(CCN(c3cnc4cnn(CC(F)F)c4n3)CC2)CN1Cc1ccc(F)cn1` [Cmpd 397], the EC50 was in the range of 10 to 50 µM. The same measure, in the same setting: the same measure for `Cc1cc(CN2CC3(CCN(c4cnc5cnn(CC(F)F)c5n4)CC3)CC2=O)no1` [Cmpd 398]: 10 to 50 µM; for `Cc1csc(CN2CC3(CCN(c4cnc5cnn(CC(F)F)c5n4)CC3)CC2=O)n1` [Cmpd 399]: 10 to 50 µM.

The assay is the same for the next values; noted with them: activation of GCase, EC50 ranges.
Compound `O=C1CC2(CCN(c3cnc4cnn(CC(F)F)c4n3)CC2)CN1Cc1cncc(C(F)(F)F)c1` [Cmpd 335] registered an EC50 of 10 to 50 µM. Take `O=C1CC2(CCN(c3cnc4cnn(CC(F)F)c4n3)CC2)CN1Cc1cncc(Cl)c1` [Cmpd 336]: the concentration for a half-maximal effect (EC50) was 10 to 50 µM.

In the case of `O=C1N(c2ccnc(C(F)(F)F)c2)CCC12CN(c1cnc3cnn(CC(F)F)c3n1)C2` [Cmpd 337], the EC50 was below 10 µM. On the same count and under the same terms, the same measure for `O=C1CC2(CN(c3cnc4cnn(CC(F)F)c4n3)C2)CN1c1ccnc(C(F)(F)F)c1` [Cmpd 338]: 10 to 50 µM; for `O=C1N(c2cnc3cnn(CC(F)F)c3n2)CCC12CN(c1ccnc(C(F)(F)F)c1)C2` [Cmpd 339]: 10 to 50 µM; for `O=C1CC2(CN(c3ccnc(C(F)(F)F)c3)C2)CN1c1cnc2cnn(CC(F)F)c2n1` [Cmpd 340]: below 10 µM.

In turn, `O=C1N(c2ccc(C(F)(F)F)cn2)CCCC12CN(c1cnc3cnn(CC(F)F)c3n1)C2` [Cmpd 341] yielded an EC50 of 10 to 50 µM. `O=C1N(c2cnc3cnn(CC(F)F)c3n2)CCCC12CN(c1ccc(C(F)(F)F)nc1)C2` [Cmpd 342] came in with an EC50 above 100 µM. In turn, `O=C1N(c2cnc3cnn(CC(F)F)c3n2)CCCC12CN(c1ccc(C(F)(F)F)cn1)C2` [Cmpd 343] gave an EC50 above 100 µM. Still for that read-out and setting: the same measure for `FC(F)(F)c1cc(N2CCC3(C2)CN(c2cnc4cnn(C5COC5)c4n2)C3)ccn1` [Cmpd 344]: below 10 µM. On the same count and under the same terms, the same measure for `Cc1nn(C2COC2)c2nc(N3CC4(CCN(c5ccnc(C(F)(F)F)c5)C4)C3)cnc12` [Cmpd 345]: below 10 µM.

As to `O=C1N(c2ccnc(C(F)(F)F)c2)CCC12CN(c1cnc3cnn(C4COC4)c3n1)C2` [Cmpd 346], the EC50 lay within 50 to 100 µM.

Consider `Cc1nn(C2COC2)c2nc(N3CC4(CCN(c5ccnc(C(F)(F)F)c5)C4=O)C3)cnc12` [Cmpd 347], for which the EC50 fell in the range of 10 to 50 µM. Same read-out and setting: the same measure for `O=C1CC2(CN(c3cnc4cnn(C5COC5)c4n3)C2)CN1c1ccnc(C(F)(F)F)c1` [Cmpd 348]: 10 to 50 µM; for `Cc1nn(C2COC2)c2nc(N3CC4(CC(=O)N(c5ccnc(C(F)(F)F)c5)C4)C3)cnc12` [Cmpd 349]: 10 to 50 µM.

For the compound `FC(F)(F)Cn1ncc2ncc(N3CC4(CCN(c5ccnc(C(F)(F)F)c5)C4)C3)nc21` [Cmpd 350], the 50% effective concentration (EC50) is below 10 µM. On the same count and under the same terms, the same measure for `FC(F)Cn1ncc2cnc(N3CC4(CCN(c5ccnc(C(F)(F)F)c5)C4)C3)nc21` [Cmpd 351]: below 10 µM; for `Cc1nn(CC(F)F)c2nc(N3CC4(CCN(c5ccnc(C(F)(F)F)c5)C4)C3)ncc12` [Cmpd 352]: below 10 µM; for `Cc1nn(CC(F)F)c2nc(N3CC4(CCN(c5ccnc(C(F)(F)F)c5)C4)C3)cnc12` [Cmpd 353]: below 10 µM.

With `O=C1N(Cc2cccc(C(F)(F)F)n2)CCC12CCN(c1cnc3cnn(CC(F)F)c3n1)CC2` [Cmpd 354], the EC50 was below 10 µM. On the same count and under the same terms, the same measure for `O=C1N(Cc2cc(C(F)(F)F)ccn2)CCC12CCN(c1cnc3cnn(CC(F)F)c3n1)CC2` [Cmpd 355]: below 10 µM; for `CCOc1ccc(CN2CCC3(CCN(c4cnc5cnn(CC(F)F)c5n4)CC3)C2=O)cn1` [Cmpd 356]: 10 to 50 µM. On the same count and under the same terms, the same measure for `O=C1N(Cc2ccnc(C(F)(F)F)c2)CCC12CCN(c1cnc3cnn(CC(F)F)c3n1)CC2` [Cmpd 357]: below 10 µM; for `O=C1N(Cc2cc(F)cc(F)c2)CCC12CCN(c1cnc3cnn(CC(F)F)c3n1)CC2` [Cmpd 358]: below 10 µM; for `O=C1CC2(CCN(c3cnc4cnn(CC(F)F)c4n3)CC2)CN1Cc1cc(C(F)(F)F)ccn1` [Cmpd 359]: below 10 µM. Still for that read-out and setting: the same measure for `O=C1CC2(CCN(c3cnc4cnn(CC(F)F)c4n3)CC2)CN1Cc1cccc(C(F)(F)F)n1` [Cmpd 360]: below 10 µM; for `CCOc1ccc(CN2CC3(CCN(c4cnc5cnn(CC(F)F)c5n4)CC3)CC2=O)cn1` [Cmpd 361]: 10 to 50 µM; for `O=C1CC2(CCN(c3cnc4cnn(CC(F)F)c4n3)CC2)CN1Cc1ccnc(C(F)(F)F)c1` [Cmpd 362]: below 10 µM. `O=C1CC2(CCN(c3cnc4cnn(CC(F)F)c4n3)CC2)CN1Cc1cc(F)cc(F)c1` [Cmpd 363] displayed an EC50 below 10 µM.

`CCc1csc(CN2CCC3(CCN(c4cnc5cnn(CC(F)F)c5n4)CC3)C2=O)n1` [Cmpd 364] displayed an EC50 below 10 µM. Take `O=C1N(Cc2nc(C(F)(F)F)cs2)CCC12CCN(c1cnc3cnn(CC(F)F)c3n1)CC2` [Cmpd 365]: the EC50 lay in the range of 10 to 50 µM. Same read-out and setting: the same measure for `O=C1N(Cc2cnc(C(F)(F)F)s2)CCC12CCN(c1cnc3cnn(CC(F)F)c3n1)CC2` [Cmpd 366]: below 10 µM; for `CCc1csc(CN2CC3(CCN(c4cnc5cnn(CC(F)F)c5n4)CC3)CC2=O)n1` [Cmpd 367]: 10 to 50 µM.

In turn, `O=C1CC2(CCN(c3cnc4cnn(CC(F)F)c4n3)CC2)CN1Cc1nc(C(F)(F)F)cs1` [Cmpd 368] gave an EC50 below 10 µM. On the same count and under the same terms, the same measure for `O=C1CC2(CCN(c3cnc4cnn(CC(F)F)c4n3)CC2)CN1Cc1cnc(C(F)(F)F)s1` [Cmpd 369]: 10 to 50 µM. For `O=C(c1ccc(OC(F)(F)F)cc1)N1CC2(CCN(c3cnc4cnn(CC(F)F)c4n3)C2)C1` [Cmpd 370], the EC50 is 10 to 50 µM. On the same count and under the same terms, the same measure for `O=C(c1cccc(Cl)c1)N1CC2(CCN(c3cnc4cnn(CC(F)F)c4n3)C2)C1` [Cmpd 371]: below 10 µM.

With `O=S(=O)(c1ccc(C(F)(F)F)cc1)N1CC2(CCN(c3cnc4cnn(CC(F)F)c4n3)C2)C1` [Cmpd 372], the EC50 is 10 to 50 µM. Same read-out and setting: the same measure for `O=S(=O)(c1ccc(F)cc1)N1CC2(CCN(c3cnc4cnn(CC(F)F)c4n3)C2)C1` [Cmpd 373]: 10 to 50 µM; for `O=S(=O)(c1cccc(C(F)(F)F)c1)N1CC2(CCN(c3cnc4cnn(CC(F)F)c4n3)C2)C1` [Cmpd 374]: 10 to 50 µM. Still for that read-out and setting: the same measure for `O=S(=O)(c1cccc(F)c1)N1CC2(CCN(c3cnc4cnn(CC(F)F)c4n3)C2)C1` [Cmpd 375]: below 10 µM; for `FC(F)(F)c1cc(N2CCC3(C2)CN(c2ncc4cnn(C5COC5)c4n2)C3)ccn1` [Cmpd 376]: 10 to 50 µM; for `O=C(c1ccc(C(F)(F)F)cc1)N1CC2(CCN(c3cnc4cnn(CC(F)F)c4n3)C2)C1` [Cmpd 377]: above 100 µM.
